Reference: patent US9216147B2, “Mild cosmetic cleansing composition” (Henkel AG & Co. KGaA, priority 2011, dated 2015)

Key:
[1] = pH of the diluted test solution; type: physicochemical; details: 5% in water
[2] = Irritation test (reaction time method) against commercially available baby and children's shampoos; details: 5% in water (reference)
Procedure: Cleansing agents 1 and 2 were compared in a test (reaction time method) with various commercially available baby and children's shampoos. The shampoos were diluted down to 50% with water in each case.
A 5% sodium laureth sulfate solution served as a reference.
A Q value of >1.20 denotes an irritating effect; a Q value of <0.8 denotes slight irritation.

sodium laureth sulfate [Reference (SLES, 5% in water)]
pH [1]: 7.2
Reaction time method [Q] [2]: 1.00
